Results: ChEMBL document CHEMBL5226289, “Discovery of natural anti-inflammatory alkaloids: Potential leads for the drug discovery for the treatment of inflammation” (Eur J Med Chem, 2021)
Each block holds one compound with its values, some of them ahead of it.

Legend:
J774.1 = test: Inhibition of NO production in LPS-stimulated mouse J774.1 cells; type: functional, cell-based
RAW264.7 [1] = test: Antiinflammatory activity against mouse RAW264.7 cells assessed as inhibition of cell growth; type: functional, cell-based
[2] = Inhibition of TNF-alpha production in LPS-stimulated human PBMC cells; type: functional, cell-based
[3] = Inhibition of IL6 production in LPS-stimulated human PBMC cells; type: functional, cell-based
RAW264.7 [4] = test: Antiinflammatory activity against LPS-stimulated mouse RAW264.7 cells assessed as reduction in iNOS protein expression at 10 uM relative to control; type: functional; design: scale not given: the % may be the effect or the level left
RAW264.7 [5] = test: Antiinflammatory activity against LPS-stimulated mouse RAW264.7 cells assessed as reduction in COX-2 protein expression at 10 uM relative to control; type: functional; design: scale not given: the % may be the effect or the level left
Mus musculus [6] = test: Antiinflammatory activity against capsaicin-induced ear edema Swiss albino mouse model assessed as inhibition of plasma extravasation at 100 umol/kg, po pre-treated with compound for 40 mins followed by capsaicin stimulation and measured after 30 mins relative to control; type: functional
Mus musculus [7] = test: Antiinflammatory activity in carrageenan-induced peritoneal Swiss albino mouse model assessed as decrease in number of leukocyte cells at 100 umol/kg, po pre-treated for 30 mins followed by carrageenan induction and measured after 4 hrs relative to control; type: functional; design: scale not given: the % may be the effect or the level left; conditions: dose 100 µmol/kg, time 4.5 hrs
[8] = Inhibition of LPS-induced NO production in mouse BV-2 cells […]; type: functional, cell-based
[9] = Inhibition of NO production in LPS-stimulated mouse BV-2 cells preincubated with compound for 1 hrs followed by LPS stimulation and measured after 24 hrs by Griess reagent-based assay; type: functional, cell-based
[10] = molecular target: T1, Polyunsaturated fatty acid 5-lipoxygenase (Homo sapiens) (UniProt P09917); test: Inhibition of 5-LOX (unknown origin) at 100 uM measured after 5 mins by colorimetric method relative to control
T1 sequence (whole entry): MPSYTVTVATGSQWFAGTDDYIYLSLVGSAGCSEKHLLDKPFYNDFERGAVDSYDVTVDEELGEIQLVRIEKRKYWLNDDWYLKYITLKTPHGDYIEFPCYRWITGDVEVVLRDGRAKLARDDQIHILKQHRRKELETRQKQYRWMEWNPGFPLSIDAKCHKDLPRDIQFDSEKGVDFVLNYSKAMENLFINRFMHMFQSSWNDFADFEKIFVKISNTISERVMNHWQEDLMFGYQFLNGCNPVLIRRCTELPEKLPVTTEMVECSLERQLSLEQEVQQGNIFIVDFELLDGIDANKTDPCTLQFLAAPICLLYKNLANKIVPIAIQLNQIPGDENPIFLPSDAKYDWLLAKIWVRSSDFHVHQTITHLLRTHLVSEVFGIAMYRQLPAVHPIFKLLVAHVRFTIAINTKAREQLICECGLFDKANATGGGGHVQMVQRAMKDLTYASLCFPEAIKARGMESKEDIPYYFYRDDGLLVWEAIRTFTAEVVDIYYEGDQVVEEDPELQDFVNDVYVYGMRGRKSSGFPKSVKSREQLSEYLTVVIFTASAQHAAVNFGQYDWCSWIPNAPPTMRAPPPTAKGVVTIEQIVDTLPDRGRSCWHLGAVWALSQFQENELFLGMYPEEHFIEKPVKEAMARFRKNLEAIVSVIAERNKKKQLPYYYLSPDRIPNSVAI

Mus musculus [11] = test: Antiinflammatory activity in mouse assessed as inhibition of xylene-induced ear edema at 8 mg/kg, ip pre-treated for 30 mins followed by xylene administration and measured after 1 hrs relative to control; type: functional; conditions: time 1.5 hrs
RAW264.7 [12] = test: Inhibition of NO production in LPS-stimulated mouse RAW264.7 cells preincubated with compound for 24 hrs followed by LPS stimulation and measured after 2 hrs by Griess reagent-based assay; type: functional, cell-based
RAW264.7 [13] = test: Antiinflammatory activity in mouse RAW264.7 cells assessed as inhibition of LPS-stimulated iNOS activity preincubated with compound for 24 hrs followed by LPS stimulation for 2 hrs and measured 2 hrs after NADPH addition by fluorescence based assay; type: functional, cell-based
[14] = Inhibition of NO production in LPS-induced mouse N9 cells incubated for 48 hrs by griess reagent based assay; type: functional, cell-based; conditions: N9, 48 h
Mus musculus [15] = test: Antiinflammatory activity in mouse assessed as inhibition of xylene-induced ear edema at 10 mg/kg, IG pre-treated for 30 mins followed by xylene administration and measured after 1 hrs relative to control; type: functional; conditions: po, time 1.5 hrs
RAW264.7 [16] = test: Inhibition of NO production in LPS-stimulated mouse RAW264.7 cells preincubated with compound for 30 mins followed by LPS stimulation and measured after 24 hrs by Griess reagent-based assay; type: functional, cell-based
[17] = molecular target: T2, Prostaglandin G/H synthase 2 (Homo sapiens, UniProt P35354); test: Inhibition of COX-2 (unknown origin) by colorimetric analysis
T2 sequence (P35354 whole entry): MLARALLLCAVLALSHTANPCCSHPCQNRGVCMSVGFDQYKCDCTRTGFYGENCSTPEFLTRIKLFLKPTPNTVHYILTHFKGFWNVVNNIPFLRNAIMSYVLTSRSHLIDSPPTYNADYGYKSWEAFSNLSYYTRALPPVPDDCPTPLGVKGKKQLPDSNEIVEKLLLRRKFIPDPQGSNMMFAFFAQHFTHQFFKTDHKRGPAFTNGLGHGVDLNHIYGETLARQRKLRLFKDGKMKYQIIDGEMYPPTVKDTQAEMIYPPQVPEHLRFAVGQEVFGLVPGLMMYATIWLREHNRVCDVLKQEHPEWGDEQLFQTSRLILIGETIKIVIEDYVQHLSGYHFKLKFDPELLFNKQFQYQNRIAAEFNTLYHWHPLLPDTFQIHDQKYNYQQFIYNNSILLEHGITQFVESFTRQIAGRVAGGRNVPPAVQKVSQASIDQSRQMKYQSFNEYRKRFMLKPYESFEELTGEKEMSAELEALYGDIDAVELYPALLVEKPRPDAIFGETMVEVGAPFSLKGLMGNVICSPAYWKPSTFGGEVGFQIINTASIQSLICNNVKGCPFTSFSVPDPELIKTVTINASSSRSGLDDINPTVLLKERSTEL

[18] = molecular target: Prostaglandin G/H synthase 1 (Homo sapiens, UniProt P23219); test: Inhibition of COX-1 (unknown origin) by colorimetric analysis
Mus musculus [19] = test: Antiinflammatory activity in Swiss Webster albino mouse assessed as inhibition of carrageenan-induced paw edema at 75 mg/kg, ip preadministered for 1 hrs followed by carrageenan induction and measured after 3 hrs by plethysmometer relative to control; type: functional; conditions: time 4 hrs
Mus musculus [20] = test: Analgesic activity in Swiss Webster albino mouse assessed as inhibition of acetic acid-induced writhing at 125 mg/kg, po pre-treated for 30 mins followed by acetic acid induction and measured for 15 mins relative to control; type: functional; conditions: 0.75 h, time 45 min
[21] = Antiinflammatory activity in rat polymorphonuclear leucocyte cells assessed as inhibition of PAF-induced beta-glucuronidase release at 10 uM preincubated for 20 mins followed by PAF addition relative to control; type: functional
Mus musculus [22] = test: Antiinflammatory activity in mouse assessed as inhibition of xylene-induced ear edema at 5 mg/kg, IG pre-treated for 30 mins followed by xylene administration and measured after 1 hrs relative to control; type: functional; conditions: po, time 1.5 hrs
RAW264.7 [23] = test: Inhibition of NO production in LPS-stimulated mouse RAW264.7 cells preincubated with compound for 1 hrs followed by LPS stimulation and measured after 24 hrs by Griess reagent-based assay; type: functional, cell-based
Rattus norvegicus = test: Antiinflammatory activity in Wistar rat assessed as inhibition of carrageenan-induced hind paw edema at 50 mg/kg, po pre-treated for 1 hrs followed by carrageenan administration and measured after 3 hrs by plethysmometer relative to control; type: functional; conditions: time 4 hrs
Mus musculus [24] = test: Prevention of LPS-induced mortality in C57BL/6 mouse model at 30 mg/kg, ip measured after 5 days relative to control; type: functional; conditions: time 5 day
[25] = molecular target: T3, Acid-sensing ion channel 1 (Rattus norvegicus) (UniProt P55926); test: Inhibition of rat ASIC1a ion channel expressed in Xenopus laevis oocytes in pH 6.9 buffer at -50 mV holding potential by voltage clamp electrophysiology recording; type: cell-based
T3 sequence (whole entry): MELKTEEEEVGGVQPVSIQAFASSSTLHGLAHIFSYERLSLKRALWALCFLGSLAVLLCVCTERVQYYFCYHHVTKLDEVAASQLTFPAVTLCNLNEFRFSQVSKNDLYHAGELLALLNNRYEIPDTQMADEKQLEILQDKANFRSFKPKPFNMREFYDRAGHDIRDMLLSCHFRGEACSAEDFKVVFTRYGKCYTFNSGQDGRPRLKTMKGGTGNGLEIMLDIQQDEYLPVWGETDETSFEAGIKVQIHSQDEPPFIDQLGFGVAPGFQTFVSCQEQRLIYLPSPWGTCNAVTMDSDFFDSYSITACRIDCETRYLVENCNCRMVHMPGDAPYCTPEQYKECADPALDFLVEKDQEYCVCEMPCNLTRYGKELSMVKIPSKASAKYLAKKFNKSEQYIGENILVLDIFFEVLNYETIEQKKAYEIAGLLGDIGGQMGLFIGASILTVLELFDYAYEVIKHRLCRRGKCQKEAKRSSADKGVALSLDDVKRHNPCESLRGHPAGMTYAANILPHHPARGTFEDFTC

[26] = molecular target: T3, Acid-sensing ion channel 1 (Rattus norvegicus); test: Inhibition of rat ASIC1a ion channel expressed in Xenopus laevis oocytes in pH 6.7 buffer at -50 mV holding potential by voltage clamp electrophysiology recording; type: cell-based
[27] = molecular target: T3, Acid-sensing ion channel 1 (Rattus norvegicus); test: Inhibition of rat ASIC1a ion channel expressed in Xenopus laevis oocytes in pH 6.5 buffer at -50 mV holding potential by voltage clamp electrophysiology recording; type: cell-based

Sequence of Prostaglandin G/H synthase 1 (P23219 whole entry): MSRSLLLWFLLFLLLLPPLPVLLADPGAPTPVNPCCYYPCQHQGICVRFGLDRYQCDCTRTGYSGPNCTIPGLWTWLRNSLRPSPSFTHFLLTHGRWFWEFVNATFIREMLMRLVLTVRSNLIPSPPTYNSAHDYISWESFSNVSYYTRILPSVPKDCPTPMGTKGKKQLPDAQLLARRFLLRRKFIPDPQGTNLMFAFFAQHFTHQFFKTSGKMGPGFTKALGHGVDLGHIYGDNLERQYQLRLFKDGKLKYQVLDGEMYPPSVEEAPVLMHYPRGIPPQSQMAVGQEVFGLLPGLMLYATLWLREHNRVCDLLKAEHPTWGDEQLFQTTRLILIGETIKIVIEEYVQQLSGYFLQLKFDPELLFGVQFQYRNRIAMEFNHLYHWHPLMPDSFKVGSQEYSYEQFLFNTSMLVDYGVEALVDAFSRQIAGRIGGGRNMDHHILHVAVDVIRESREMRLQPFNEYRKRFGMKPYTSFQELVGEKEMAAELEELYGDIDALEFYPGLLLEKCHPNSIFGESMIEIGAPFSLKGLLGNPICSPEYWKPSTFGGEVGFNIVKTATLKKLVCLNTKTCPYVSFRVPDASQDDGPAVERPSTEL

SMILES: COC(=O)[C@@]1(O)C2=Nc3c(O)cccc3[C@@]23C[C@H]2C[C@]4(C(C)=O)ON2[C@H]3C[C@H]14
IC50 (J774.1): 49.2 µM
IC50 (RAW264.7 [1]): 39.6 µM

SMILES: COc1cc(C)cc2c1[nH]c1ccccc12 [MURRAYAFOLINE A]
IC50 [2]: 7 µM
IC50 [3]: 8.4 µM

SMILES: CSc1[nH]c2cc(Br)c(Br)c(Br)c2c1SC
Activity (RAW264.7 [4]): 2.8%
Activity (RAW264.7 [5]): 1.6%

SMILES: COC(=O)/C1=C/c2c([nH]c3ccccc23)/C(C(=O)OC)=C\c2c1[nH]c1ccccc21 [CAULERPIN]
inhibition in vivo at 100 µmol/kg (Mus musculus [6]): 55.8%
Activity (Mus musculus [7]): 48.3%

SMILES: C/C=C1/CN2CC[C@@H]1[C@@](CO)(C(=O)OC)c1[nH]c3ccccc3c1C2
inhibition [10]: 60.8%
inhibition in vivo at 8 mg/kg (Mus musculus [11]): 40.3%

SMILES: C=C[C@@H]1[C@@H](O[C@@H]2O[C@H](CO)[C@@H](O)[C@H](O)[C@H]2O)OC=C(C(=O)OC)[C@@H]1C[C@@H]1NCCc2c1[nH]c1ccccc21
IC50 [14]: 8.3 µM

SMILES: C/C=C1/CN2[C@@H]3C[C@@]45c6ccccc6N[C@]4(O3)[C@@H]2C[C@@H]1[C@@H]5OC(C)=O
inhibition [10]: 79.2%
inhibition in vivo at 10 mg/kg (Mus musculus [15]): 41.9%

SMILES: CC(C)CC(=O)NC[C@H]1CC[C@H](NC(=O)c2nc3ccccc3cc2O)[C@H](O)O1
IC50 [17]: 1.4 µM
IC50 [18]: 4.9 µM

SMILES: O=C1Oc2c(c3c(O)cc(O)cc3n2-c2ccc(O)cc2)C(=O)Oc2c1c1c(O)cc(O)cc1n2-c1ccc(O)cc1
inhibition in vivo at 75 mg/kg (Mus musculus [19]): 57.1%
inhibition in vivo at 125 mg/kg (Mus musculus [20]): 49.4%

SMILES: COC1O[C@@H]([C@@H]2c3cc4c(cc3CCN2C)OCO4)c2ccc3c(c21)OCO3 (stereo partly drawn)
inhibition at 10 µM [21]: 35.6%

SMILES: COC1O[C@H]([C@@H]2c3cc4c(cc3CCN2C)OCO4)c2ccc3c(c21)OCO3 (stereo partly drawn)
inhibition at 10 µM [21]: 32.4%

SMILES: COC(=O)C1=C2Nc3c(O)cccc3[C@@]23CCN2C[C@@H]([C@H](C)O)[C@@H]1C[C@H]23 [SCHOLARICINE]
inhibition in vivo at 5 mg/kg (Mus musculus [22]): 42%

SMILES: COc1ccc2c(OC)c3ccoc3nc2c1 [EVOLITRINE]
inhibition in vivo at 50 mg/kg (Rattus norvegicus): 62%

SMILES: COc1ccc2c(c1)[nH]c1c(/C=C/C(=O)O)nccc12
Activity (Mus musculus [24]): 12.5%

SMILES: COc1cc2c(cc1O)C(Cc1ccc(O)c(Oc3ccc(C[C@@H]4NCCc5cc(OC)c(O)cc54)cc3)c1)NCC2 (stereo partly drawn)
inhibition [25]: 98.1%
inhibition [26]: 93.7%
inhibition [27]: 69.3%

SMILES: CC(C)=CCOc1ccc(CCNC(=O)c2ccccc2)cc1
IC50 [8]: 4.9 µM

Continued, in another order:

IC50 [9]: 0.5 µM
SMILES: COc1cc(/C=C/C(=O)CC(=O)/C=C/c2ccc(O)c(OC)c2)ccc1O [CURCUMIN]
IC50 [8]: 0.5 µM

IC50 (RAW264.7 [12]): 11.2 µM
IC50 (RAW264.7 [13]): 5.4 µM
SMILES: C=CC(C)(C)c1[nH]c2cc3c(cc2c1/C=C1\NC(=O)[C@@H]2CCCN2C1=O)C=CC(C)(C)O3

IC50 (RAW264.7 [16]): 48.4 µM
SMILES: COc1c(O)ccc2c1cnc1c3cc4c(cc3ccc21)OCO4 [DECARINE]

IC50 [17]: 2.1 µM
IC50 [18]: 7.6 µM
SMILES: CC(C)CC(=O)NC[C@H](O)CC[C@@H](CO)NC(=O)c1nc2ccccc2cc1O

IC50 (RAW264.7 [23]): 25.2 µM
SMILES: O=C1CC[C@H]2c3[nH]c4ccc(O)cc4c3CCN12

IC50 (RAW264.7 [16]): 6.8 µM
SMILES: O=C(C1C=CC(c2ccc3c(c2)OCO3)C(/C=C/c2ccc3c(c2)OCO3)C1C(=O)N1CCCCC1)N1CCCCC1 (stereo not drawn)

IC50 (RAW264.7 [23]): 31.9 µM
SMILES: O=C1NCCc2c1[nH]c1ccc(O)cc21

IC50 [2]: 9.4 µM
IC50 [3]: 8.4 µM
SMILES: COc1ccc2c(c1)[nH]c1c3c(c(C)cc12)OC(C)(C)C=C3
